Here are results for one compound from paper PMC9452538, “The antimicrobial peptide LI14 combats multidrug-resistant bacterial infections” (Communications Biology, 2022).

One assay relates to E. coli CP131 (mcr-3). As to the kind of experiment: microbe, parasite or virus in culture. It is filed as cell-based, Escherichia coli. The settings on record: CP131 (mcr-3). The protocol:
(§1) An antimicrobial activity study was conducted on all peptides against a panel of laboratory bacteria, including ATCC source and clinical isolates with resistance determinants. According to CLSI2021 guidelines, we tested the minimum inhibitory concentrations (MICs) of peptides using standard broth micro-dilutions. Briefly, bacteria grown to exponential phase were diluted in 1:1000 to MHB, subsequently, equivalent amounts of bacterial suspension (1.5 × 10^6 CFUs/mL) were mixed with different concentrations of peptides in a sterilized 96-well microtiter plate (Corning).

The next assay deals with E. coli C3 (blaNDM-1). The experiment in a line: microbe, parasite or virus in culture. It is filed as cell-based, Escherichia coli. The settings on record: C3 (blaNDM-1). The protocol:
as §1

The subject of a further assay is E. coli G92 (mcr-1). The experiment in a line: microbe, parasite or virus in culture. It is filed as cell-based, Escherichia coli. The settings on record: G92 (mcr-1). The protocol: as §1
The next assay deals with E. coli 1F28 (tet(X4)). As to the kind of experiment: microbe, parasite or virus in culture. It is filed as cell-based, Escherichia coli. The settings on record: 1F28 (tet(X4)). The protocol: as §1
The subject of a further assay is E. coli B3-1 (tet(X4)). The experiment in a line: microbe, parasite or virus in culture. It is filed as cell-based, Escherichia coli. The settings on record: B3-1 (tet(X4)). The protocol: as §1
The subject of a further assay is E. coli G6 (blaNDM-5). The experiment in a line: microbe, parasite or virus in culture. The settings on record: G6 (blaNDM-5). It is filed as cell-based, Escherichia coli. The protocol:
as §1

The subject of assay [1] is S. aureus ATCC 29213, MRSA T144, E. coli ATCC 25922, E. coli B2. The experiment in a line: Time-killing assay. It is filed as cell-based. The settings on record: MHB. The protocol: Bacteria from the exponential phase were diluted into MHB at 1:1,000, and bacteria suspensions (~10^5 CFUs/mL for Gram-positive bacteria, ~10^6 CFUs/mL for Gram-negative bacteria) were mixed with various concentrations of LI14 peptide and incubated at 37 °C for 0.5, 1, 2, 4, and 12 h, respectively. At intervals, samples were serially diluted ten-fold and plated on MHA plates. The amount of primary CFUs/mL was determined after overnight incubation of bacterial colonies.

Values after ≈ are worked out from the molar mass of the structure shown. Peptide text beside a SMILES is read from it.

For `CC[C@H](C)[C@H](NC(=O)[C@H](CCCNC(=N)N)NC(=O)[C@H](CS)NC(=O)[C@H](CC(C)C)NC(=O)[C@H](CCCCN)NC(=O)[C@H](CCCCN)NC(=O)[C@H](CC(C)C)NC(=O)[C@@H](NC(=O)[C@H](CCCNC(=N)N)NC(=O)[C@H](CS)NC(=O)[C@H](CC(C)C)NC(=O)[C@H](CCCCN)NC(=O)[C@H](CCCCN)NC(=O)[C@@H](N)CC(C)C)[C@@H](C)CC)C(N)=O` [LI14] (H-LKKLCRILKKLCRI-NH2), the MIC against E. coli CP131 (mcr-3) stood at 4 µg/mL (≈ 2.32 µM); in the assay with E. coli C3 (blaNDM-1), 4 µg/mL (≈ 2.32 µM); in the assay with E. coli G92 (mcr-1) it was 8 µg/mL (≈ 4.63 µM); against E. coli 1F28 (tet(X4)), 8 µg/mL (≈ 4.63 µM); in the assay with E. coli B3-1 (tet(X4)), 8 µg/mL (≈ 4.63 µM); against E. coli G6 (blaNDM-5) it was 4 µg/mL (≈ 2.32 µM). For the same compound, in assay [1] (8 μg/mL LI14, three tested strains, except for MRSA T144), the “Killing of the tested strains at 12 h” value is reported as “completely eliminate”. Also, the “Time to eliminate all E. coli strains” value in assay [1] (32 μg/mL LI14, ~10^6 CFUs/mL, 37 °C) is given as at most 0.5 h.
